Data on 80 compounds can be found in the METLIN SMRT retention time set (Domingo-Almenara et al. 2019).

The nature of the data set: gradient 5% acetonitrile 3 min, to 50% in 2 min, to 85% in 15 min, held 3 min, 100 µL/min. The settings on record: column: Zorbax Extend-C18 2.1 x 50 mm; eluents: water / acetonitrile, 0.1% formic acid. In outline: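 Data were gathered over 3 months by HPLC coupled to a quadrupole time-of-flight mass spectrometer, operated in positive and negative ionization mode. Mixtures of ~100 pure standards ran on a Zorbax Extend-C18 column (2.1 × 50 mm, 1.8 μm) at 100 μL/min, with water and acetonitrile each containing 0.1% formic acid and dead and dwell volumes of 40 μL and 900 μL. Retention time was read from adduct peaks picked by computer and checked manually.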
Regarding `COc1ccc(-c2noc(C3CCCN3C(=O)Nc3cc(OC)cc(OC)c3)n2)cc1` (stereo not given), the RP-LC retention time stood at 941 s.

Take `COCC1CCN(C(=O)CCC2CCN(c3cc(NC4CC4)ncn3)CC2)CC1`: the RP-LC retention time turned out to be 636 s.

For the compound `O=C(Cn1cc(S(=O)(=O)c2ccc(F)cc2)c2ccccc21)NC1CC1`, the RP-LC retention time amounted to 748 s.

Consider `CN1CCN(CCCNC(=O)Cn2c3ccccc3c3cnn(C)c(=O)c32)CC1`, for which the RP-LC retention time was determined as 560 s.

Compound `Cn1ncc(Br)c1C(=O)N1CCCC1c1ccc(F)cc1` (stereo not given) had an RP-LC retention time of 832 s.

Turning to `c1ccc(N2CCN(Cc3nc(-c4ccc(N5CCSCC5)nc4)no3)CC2)nc1`, the RP-LC retention time was 625 s.

For `CC1(C)C(=O)N(CC(=O)Nc2ccc(F)cc2F)c2ccccc21`, the RP-LC retention time was determined as 871 s.

`O=C(Cn1c(=O)c(=O)n(Cc2ccccc2)c2ncccc21)NCc1ccco1` had an RP-LC retention time of 786 s.

Regarding `CCn1cc(-c2ccc(C)cc2)cc1C(=O)NCCN(C)C`, the RP-LC retention time is 680 s.

`Cc1cccc(NC(=O)Cc2cn(C)c3ncccc23)c1` came in with an RP-LC retention time of 722 s.

Turning to `CCOc1ccc(NC(=O)C2CCN(S(=O)(=O)c3cc(-c4noc(C)n4)cs3)CC2)cc1`, the RP-LC retention time came out at 917 s.

`CCC(C)(C)C(=O)N1CCCC1Cc1noc(-c2cccnc2)n1` (stereo not given): the RP-LC retention time turned out to be 839 s.

In turn, `CC(=O)Nc1ccc(-c2nc3ccccc3s2)cc1` yielded an RP-LC retention time of 799 s.

Regarding `CCN1C(=O)COc2ccc(-c3noc(C4CC(=O)N(c5ccc(C)cc5)C4)n3)cc21` (stereo not given), the RP-LC retention time turned out to be 878 s.

Take `O=C(c1nnc(-c2ccc(S(=O)(=O)N3CCOCC3)cc2)o1)N1CCc2ccccc2C1`: the RP-LC retention time amounted to 917 s.

Compound `CCc1nnc(-c2cccn2CC(=O)NCc2cccc(Br)c2)o1` showed an RP-LC retention time of 835 s.

Regarding `COc1cccc(NC(=O)C2CCN(c3cc(N4CCCC4)ncn3)CC2)c1`, the RP-LC retention time was 652 s.

The compound `Cc1ccc(-c2ncccc2CNS(=O)(=O)c2ccc(F)c(F)c2)cc1` returned an RP-LC retention time of 738 s.

As to `Cc1cc(-c2nnc(-c3ccc(F)cc3)o2)c(C)n1CC(=O)NCc1cccnc1`, the RP-LC retention time was 637 s.

`COc1ccc(CN2CC(C(=O)N3CCN(c4cc(=O)n(C)c(=O)n4C)CC3)CC2=O)cc1` (stereo not given) registered an RP-LC retention time of 630 s.

Compound `O=C(C1=CN(c2cc(F)cc(F)c2)c2cc(Cl)ccc2S1(=O)=O)N1CCCC1` displayed an RP-LC retention time of 861 s.

On to `Cc1nc2cccnc2n1C1CCN(C(=O)Nc2ccc(Br)cc2F)CC1`, for which the RP-LC retention time turned out to be 671 s.

In turn, `Cc1ccc(C)n1-c1nnc(N2CCCC(C(=O)NC3CC3)C2)s1` (stereo not given) showed an RP-LC retention time of 780 s.

In turn, `CCc1c(C)nc2ncnn2c1N1CCOCC1` yielded an RP-LC retention time of 653 s.

The compound `COc1ccc(S(=O)(=O)N2CCCn3ccnc3C2c2cnn(C)c2)cc1Cl` (stereo not given) came in with an RP-LC retention time of 618 s.

Regarding `Cc1ccc(-c2nc(NCC3CCCO3)ncc2C(=O)O)cc1` (stereo not given), the RP-LC retention time was 735 s.

Regarding `CC(=O)N1CCN(CCOc2ccc(C3CCN(C4=Nn5c(nnc5C(F)(F)F)CC4)CC3)cc2)CC1`, the RP-LC retention time amounted to 686 s.

Regarding `CCc1ccc(NC(=O)Cn2c(=O)n(-c3ccc(C)cc3)c(=O)c3c2cc(C)n3C)cc1`, the RP-LC retention time was 956 s.

The compound `CCN(CC)C(=O)c1cc2c(s1)N(CC1CC1)CCCC2` displayed an RP-LC retention time of 1180 s.

Turning to `O=C(Cc1c[nH]c2ncccc12)NCc1ccc(C(F)(F)F)cc1`, the RP-LC retention time is 677 s.

As to `NC(=O)C1CCN(C(=O)C2CCN(S(=O)(=O)Cc3ccc(Cl)cc3)CC2)CC1`, the RP-LC retention time came out at 678 s.

As to `Cc1ccc(-n2cc3c(N4CCCC(C(=O)NC5CCCCCC5)C4)ncnc3n2)cc1` (stereo not given), the RP-LC retention time came out at 762 s.

As for `CCn1nccc1C(=O)N1C[C@@H](CO)[C@H](NC(C)=O)C1`, the RP-LC retention time is 514 s.

`COc1ccccc1-c1noc(C2CCCN2C(=O)Nc2cccc(SC)c2)n1` (stereo not given) had an RP-LC retention time of 908 s.

For `Cc1ccc(CNC(=O)C2(C)Cn3nc(C(=O)N4CCOCC4)cc3C(=O)N2C)cc1` (stereo not given), the RP-LC retention time came out at 662 s.

In the case of `CC1(C)CC(=O)N(CC(=O)Nc2c(F)c(F)c(F)c(F)c2F)c2ccccc2S1(=O)=O`, the RP-LC retention time was found to be 860 s.

Regarding `Cc1ccc(CCCN2CCCC(COc3ccccc3C(=O)N3CCCCC3)C2)o1` (stereo not given), the RP-LC retention time was found to be 748 s.

Turning to `COCc1nc(C2CCN(C(=O)c3ccoc3)C2)no1` (stereo not given), the RP-LC retention time came to 644 s.

Consider `CCC(C(=O)N1CCC(N2CCCCC2)CC1)n1nc(C)c2sc3ccccc3c2c1=O` (stereo not given), for which the RP-LC retention time amounted to 676 s.

On to `O=S(=O)(c1ccc(-c2noc(-c3ccccc3Br)n2)cc1)N1CCOCC1`, for which the RP-LC retention time was 1110 s.

Regarding `CCn1ccc2sc(C)c(C(=O)NCC(C)C)c2c1=O`, the RP-LC retention time is 747 s.

In the case of `O=C(NC1CCCC1)C1CCc2sc(C(=O)N3CCCCCC3)cc2C1` (stereo not given), the RP-LC retention time stood at 900 s.

`COc1ccc(Cl)cc1NC(=O)Nc1ccc2c(c1)C(=O)NCC2` returned an RP-LC retention time of 748 s.

`CC1=NS(=O)(=O)N(C)C=C1C(=O)OCc1nc(-c2cccc(Cl)c2)no1` displayed an RP-LC retention time of 1010 s.

Turning to `CCc1cc(-c2csc(S(=O)(=O)NCc3ccc(Br)cc3)c2)on1`, the RP-LC retention time amounted to 1020 s.

For the compound `CCn1c(=O)c2ccn(CC(=O)N3CCN(Cc4ccc5c(c4)OCO5)CC3)c2n(CC)c1=O`, the RP-LC retention time is 591 s.

Compound `O=C(CSc1nnc(-c2ccc(Cl)cc2)o1)Nc1nccs1` came in with an RP-LC retention time of 867 s.

`COc1cc(Cl)c(NC(=O)C2CCCN(C(=O)c3cc(-c4ccncc4)n[nH]3)C2)c(OC)c1` (stereo not given) came in with an RP-LC retention time of 642 s.

The compound `N#CC1C=Cc2c(ccc3ccccc23)N1C(=O)c1ccccc1` (stereo not given) displayed an RP-LC retention time of 1090 s.

In turn, `Fc1ccc(-c2nc(-c3ccc(-n4cccn4)nc3)no2)c(Cl)c1` displayed an RP-LC retention time of 1300 s.

Regarding `CCC(C)(C)NC(=O)c1cc2c(s1)N(CCOC)CCCC2`, the RP-LC retention time came out at 1020 s.

Compound `CCc1cccc(C)c1NC(=O)C1CCCN(S(=O)(=O)c2ccc(OC)c(Cl)c2)C1` (stereo not given) had an RP-LC retention time of 1020 s.

`COc1ccc(-c2nc(C3CC(=O)N(c4ccc(C)cc4)C3)no2)cc1OC` (stereo not given) had an RP-LC retention time of 937 s.

Take `Cc1ccccc1NC(=O)N1CCC(c2nc(C(=O)N3CCOCC3)c(C)o2)CC1`: the RP-LC retention time amounted to 673 s.

The compound `Cc1ccc(Nc2c(-c3ccccc3)nc3ccccn23)cc1` displayed an RP-LC retention time of 694 s.

With `CCCn1cc(CCNS(=O)(=O)c2ccccc2)c2cccnc21`, the RP-LC retention time was 786 s.

Turning to `O=C(c1cc(=O)c2ccccc2o1)N1CC2CC(C1)c1cccc(=O)n1C2` (stereo not given), the RP-LC retention time worked out at 598 s.

`CN1C(=O)c2cc(C(=O)NCCc3c[nH]c4ccccc34)nn2CC1(C)C(=O)NC1CCCCC1` (stereo not given) came in with an RP-LC retention time of 806 s.

Consider `CC(C)n1c(=O)c2ccccc2n(Cc2nc(-c3ccc4c(c3)OCO4)no2)c1=O`, for which the RP-LC retention time came out at 1080 s.

Regarding `O=C(O)c1nnn(-c2cccc(Cl)c2)c1-c1ccncc1`, the RP-LC retention time was 657 s.

`O=C(NCc1ccco1)Nc1cccc([N+](=O)[O-])c1` showed an RP-LC retention time of 846 s.

Regarding `Cc1nn(-c2ccc(-c3ccccc3)nn2)c(C)c1S(=O)(=O)N(C)Cc1ccccc1`, the RP-LC retention time came to 1190 s.

`O=C1CC2OCC=C3CN4CC[C@]56c7ccccc7N1C5[C@H]2[C@H]3C[C@H]46` (stereo not given in full) had an RP-LC retention time of 583 s.

`Cc1nn(CCCC(=O)NCc2ccc3c(c2)OCO3)c(=O)c2nn(-c3ccccc3)c(C)c12` yielded an RP-LC retention time of 704 s.

Turning to `COc1c(C(=O)NCc2ccc3c(c2)OCO3)sc2ccc(Cl)cc12`, the RP-LC retention time came to 1070 s.

In the case of `COc1ccc(N2C=C(C(=O)N3CCCCC3)S(=O)(=O)c3ccccc32)cc1`, the RP-LC retention time worked out at 859 s.

On to `CCOc1ccc(-c2noc(CN3C(=O)COc4ccccc43)n2)cc1`, for which the RP-LC retention time came to 1030 s.

The compound `Cc1cc(F)ccc1NC(=O)CCc1c(C)nn(-c2cc(N(C)C)ncn2)c1C` yielded an RP-LC retention time of 778 s.

Turning to `O=C(NCc1cccc(Br)c1)c1csc(C(=O)N2CCCC2)n1`, the RP-LC retention time was 850 s.

For the compound `COc1ccc(NC(=O)Nc2cc(-c3cn4cccnc4n3)ccc2C)cc1`, the RP-LC retention time was found to be 590 s.

`COc1ccc(C2(C(=O)N3CCN(S(=O)(=O)c4c(C)nn(C(C)C)c4C)CC3)CC2)cc1`: the RP-LC retention time turned out to be 889 s.

`Cc1cccc(OCCc2noc(C3CNC3)n2)c1` came in with an RP-LC retention time of 644 s.

In turn, `Cc1cc(N2CCN(C(=O)Nc3ccc4c(c3)OCO4)CC2)nc(N2CCCCC2)n1` came in with an RP-LC retention time of 660 s.

For `Cc1ccc(C)c(S(=O)(=O)N2CCCN(c3ccc(=O)n(-c4ccccc4)n3)CC2)c1`, the RP-LC retention time was 947 s.

Regarding `O=C(Cn1cccc(-c2nc(-c3ccc(F)cc3)no2)c1=O)Nc1ccc(F)c(Cl)c1`, the RP-LC retention time is 960 s.

In turn, `CNc1nc(NC(C)C)nc(-n2cnc(SC)n2)n1` yielded an RP-LC retention time of 722 s.

As to `O=C(Nc1ccc2nc3n(c(=O)c2c1)CCCCC3)C(=O)NC1CC1`, the RP-LC retention time stood at 687 s.

Compound `CCCN(CCC)CCCNC(=O)C1CCCN(c2ncc(-c3ccc(F)cc3)cn2)C1` (stereo not given) had an RP-LC retention time of 749 s.

Compound `CCN(CC)CCNC(=O)Cn1nc(-c2ccc(Cl)cc2)ccc1=O` returned an RP-LC retention time of 624 s.

On to `O=C1CCC(CCNS(=O)(=O)c2ccc3c(c2)CCCC3)CCN1CC1CC1` (stereo not given), for which the RP-LC retention time is 938 s.
